Assay results reported in patent US11401243B2, “Quinoline derived small molecule inhibitors of nicotinamide N-methyltransferase (NNMT) and uses thereof” (priority 2017, dated 2022).
Entries after “also recorded” stand apart in the source; their conditions may differ.

Tests used:
[1] = Parallel artificial membrane permeability assay (PAMPA); type: in vitro ADME; settings: for Permeability Classification (passive transport): BCS classification
Protocol: Samples were tested in triplicates in three separate experiments.

human NNMT (mt-hNNMT) = target: T1, human NNMT (mt-hNNMT) (Homo sapiens, UniProt P40261, E101A/E103A/K100A); test: NNMT activity assay (HPLC-UV detection of MNA), NNMT IC50 curves; settings: for IC50: NNMT Inhibition IC50, mean ± SD of duplicate or triplicate measurements, NI = no observable inhibition
T1 sequence (P40261 1-261 K100A/E101A/E103A limits assumed): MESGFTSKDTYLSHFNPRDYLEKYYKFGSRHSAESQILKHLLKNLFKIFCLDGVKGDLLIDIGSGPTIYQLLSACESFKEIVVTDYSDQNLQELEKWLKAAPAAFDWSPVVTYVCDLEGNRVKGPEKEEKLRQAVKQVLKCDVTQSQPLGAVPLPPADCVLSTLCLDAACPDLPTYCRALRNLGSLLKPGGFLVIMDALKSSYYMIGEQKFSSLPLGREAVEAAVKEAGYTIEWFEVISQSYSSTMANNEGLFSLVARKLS

[2] = test system: 3T3-L1 pre-adipocytes cells; test: MTT cell viability assay; type: cell-based; settings: 3T3-L1 pre-adipocytes, 24 h
Protocol: Cells were treated for 24 h with 0.1-600 μM NNMT inhibitors in cell culture media. A 24 h time point was chosen based on a previous report of using this time period for transfecting or treating 3T3-L1 cells with NNMT anti-sense oligonucleotides or a small molecule NNMT product inhibitor (1-MNA), respectively, for phenotypic measures. MTT (3-(4,5-dimethylthiazol-2-yl)-2,5-diphenyltetrazolium bromide) (ATCC; Manassas, Va., USA) was added to each well and assayed according to the manufacturer's instructions. Absorbance corresponding to the amount of formazan dye produced by treated cells was normalized to that produced by control (untreated) cells to calculate % viable cells in the treated samples.

[3] = Bi-directional permeability assay with Caco-2 cells; settings: human
Caco-2 cells = test: as above; settings: Caco-2; listed as 7-amino-1MQ
[4] = 400 μM in PBS, 4 h, room temperature

Molecule	IC50 (human NNMT (mt-hNNMT))	further results
1-methylnicotinamide [reference compound]	–	Flux [1, 4]: 0 cm/s; Permeability Classification (passive transport) [1]: No permeability; Permeability Classification (passive transport) ([1]; listed as 1-MNA): no passive permeability
C[n+]1cccc2ccccc21 [1a, 1-methylquinolinium]	12.1 ± 3.1 µM	Flux [1, 4]: 0 cm/s; Permeability Classification (passive transport) [1]: No permeability; Permeability Classification (passive transport) ([1]; listed as 1-MQ): lacked passive diffusion properties
Cc1ccc2ccccc2[n+]1C [1b]	21 ± 2.1 µM	–
C[n+]1c(N)ccc2ccccc21.[I-] [1c, 2-amino-1-methylquinolin-1-ium Iodide]	6.3 ± 1.1 µM	inhibitory activity against NNMT (in words) (human NNMT (mt-hNNMT)): exhibited inhibitory activity
C[n+]1cc(N)cc2ccccc21 [1d]	2.9 µM	–
C[n+]1cc(C#N)cc2ccccc21 [1e]	23.8 ± 5.6 µM	–
CNc1cc2ccccc2[n+](C)c1.[I-] [1f, 1-methyl-3-(methylamino)quinolin-1-ium Iodide]	4 ± 1.5 µM	inhibitory activity against NNMT (in words) (human NNMT (mt-hNNMT)): exhibited inhibitory activity
C[n+]1cc(Nc2ccccc2)cc2ccccc21 [1g]	> 1000 µM	–
Cc1cc[n+](C)c2ccccc12 [1h]	7.5 ± 2.2 µM	–
C[n+]1ccc(N)c2ccccc21 [1i]	11.4 ± 2.1 µM	–
C[n+]1cccc2cc(F)ccc21 [1k]	5.7 ± 1.8 µM	–
C[n+]1cccc2cc(N)ccc21.[I-] [1m, 6-amino-1-methylquinolin-1-ium Iodide]	34.4 ± 9.6 µM	inhibitory activity against NNMT (in words) (human NNMT (mt-hNNMT)): exhibited inhibitory activity
COc1ccc2c(ccc[n+]2C)c1 [1n]	120 ± 50.1 µM	–
C[n+]1cccc2ccc(N)cc21 [1o]	2.6 ± 0.5 µM	cell viability ([2]; 10 μM): did not impact cell viability; cytotoxicity ([2]; 600 μM (highest concentration tested)): ~40%; cytotoxicity relative to untreated cells ([2]; 100-300 μM): modest cytotoxicity; Papp at 4 h, 400 μM ([1]; 400 μM in PBS, 4 h, room temperature, read-out: Flux): 2.05 ×10⁻⁶ cm/s; Permeability Classification (passive transport) ([1]; listed as 7-amino-1MQ): high passive and active transport; also recorded: High permeability; efflux ratio at 2 h, 10 μM ([3]; Caco-2): 1.52; Papp A→B at 2 h, 10 μM ([3]; Caco-2, pH 7.4): 26 ×10⁻⁶ cm/s; Papp B→A at 2 h, 10 μM ([3]; Caco-2, pH 7.4): 39.6 ×10⁻⁶ cm/s; Classification (active transport / efflux) (Caco-2 cells): no detectable efflux; also recorded: High permeability
C[n+]1cccc2ccc(O)cc21 [1p]	709 ± 179 µM	–
C[n+]1cccc2cccc(O)c21 [1r]	95.2 ± 21 µM	–
CC[n+]1cccc2ccccc21 [1s]	27.1 ± 5.4 µM	–
COCC[n+]1cccc2ccccc21 [1t]	> 1000 µM	–
O=C(C[n+]1cccc2ccccc21)c1ccccc1 [1u]	> 1000 µM	–
